Test results published in patent US9439906B2, “Dosing regimen associated with long acting injectable paliperidone esters” (Janssen Pharmaceutica NV, priority 2007, dated 2016).

Legend:
[1] = Comparison of single-dose PK profile in the deltoid to that in the gluteal (summary of phase 1 studies); type: in vivo, human
Description: The plasma concentration-time profile of paliperidone after single i.m. injection of the paliperidone palmitate formulation at 25-150 mg-eq. has been documented in several studies (Table 4). Details of how the comparison of injection sites study and the dose proportionality studies were performed are provided in Examples 2 and 3.

[2] = Pharmacokinetics in phase 3 study R092670-PSY-3007; type: in vivo, human; conditions: Day 8, 3 dose groups
Description: Subjects without source documentation of previous exposure to at least 2 doses of oral risperidone or paliperidone extended-release (ER), at least 1 dose of i.m. RISPERDAL® CONSTA® or paliperidone palmitate, or who were not currently receiving an antipsychotic medication were given 4 to 6 days of paliperidone ER 6 mg/day (or the option of oral risperidone 3 mg/day for subjects in Malaysia) for tolerability testing. Subjects who had source documentation of previous exposure to the above medications and were currently taking another antipsychotic regimen continued their current treatment through Day-1. At the beginning of the double-blind treatment period, subjects were randomly assigned in a 1:1:1:1 ratio to 1 of 4 treatment groups: placebo or paliperidone palmitate 25 mg eq., 100 mg eq., or 150 mg eq. Study medication was administered as 4 doses: an initial i.m. injection of 150 mg eq. of paliperidone palmitate or placebo followed by 3 fixed i.m. doses of placebo or paliperidone palmitate [25, 100, or 150 mg eq.] on Days 8, 36, and 64. The initial injection of study medication was given in the deltoid muscle. Subsequent injections were given either in the deltoid or gluteal muscle at the discretion of the investigator. […] Efficacy and safety were evaluated regularly throughout the study. […]

[3] = Safety and local tolerability in the gluteal versus deltoid multiple-dose study; conditions: for mean injection site pain VSA score: day 1, 8 hours after injection
[4] = 100 mg-eq., combined injection sites

## CCCCCCCCCCCCCCCC(=O)OC1CCCn2c1nc(C)c(CCN1CCC(c3noc4cc(F)ccc34)CC1)c2=O (racemic) [paliperidone palmitate, (±)-3-[2-[4-(6-fluoro-1,2-benzisoxazol-3-yl)-1-piperidinyl]ethyl]-6,7,8,9-tetrahydro-2-methyl-4-oxo-4H-pyrido[1,2-α]pyrimidin-9-yl hexadecanoate]
[1]; both injection sites, doses greater than 50 mg eq.
  increase in Cmax versus dose: slightly less than dose proportional
[1]; single dose, deltoid vs gluteal
  median apparent half-life between injection sites: comparable
[1]; single-dose 25 to 150 mg eq., deltoid and gluteal
  total exposure (AUC∞) of paliperidone versus dose: increased proportionally with dose
[2]
  median paliperidone plasma concentrations in high BMI compared to low BMI (<25 kg/m^2) subjects: lower
[3]; [4]
  adverse event: diastolic hypotension: 12%
  adverse event: hypotension: 14%
  adverse event: injection site pain: 14%
  adverse event: orthostatic hypotension: 24%
[3]; 100 mg-eq., four injections
  deaths in the study: no deaths
  serious adverse events (worsening of psychosis) that led to discontinuations: four
  tolerability: well tolerated
[3]; deltoid
  mean injection site pain VSA score: 10.8
[3]; gluteal
  mean injection site pain VSA score: 3.3
